Format in all cases: functional
The subject of assay [1] is Aphis gossypii. Nature of the assay: Insecticidal activity against imidacloprid-resistant Aphis gossypii (cotton aphid) in cotton leaves assessed as mortality measured after 72 hr by dipping method.
Assay [2] deals with Aphis gossypii. Description: Insecticidal activity against imidacloprid-resistant Aphis gossypii RF45 (cotton aphid) in cotton leaves assessed as mortality measured after 48 hr by dipping method.
Assay [3] concerns Aphis gossypii.
Description: Insecticidal activity against imidacloprid-resistant Aphis gossypii (cotton aphid) in cotton leaves assessed as inhibition of honeydew excretion at LC20 concentration measured after 72 hr by dipping method
Assay [4] relates to Aphis gossypii. Nature of the assay: Insecticidal activity against imidacloprid-resistant Aphis gossypii (cotton aphid) in cotton leaves assessed as longevity at LC20 concentration.
Assay [5] deals with Aphis gossypii. Description: Insecticidal activity against Aphis gossypii SS (cotton aphid) in cotton leaves assessed as mortality measured after 48 hr by dipping method.
In assay [6] the test system is Aphis gossypii. Description: Resistance ratio, LC50 for Aphis gossypii RF45 (cotton aphid) to LC50 for Aphis gossypii SS.
Assay [7] has as its system Aphis gossypii. Nature of the assay: Insecticidal activity against cotton aphid Aphis gossypii F24 (cotton aphid) in cotton leaves assessed as mortality measured after 48 hr by dipping method.
Assay [8] concerns Aphis gossypii. Description: Insecticidal activity against cotton aphid Aphis gossypii F15 (cotton aphid) in cotton leaves assessed as mortality measured after 48 hr by dipping method.
Assay [9] relates to Aphis gossypii. Nature of the assay: Insecticidal activity against cotton aphid Aphis gossypii F42 (cotton aphid) in cotton leaves assessed as mortality measured after 48 hr by dipping method.
Assay [10] deals with Aphis gossypii. Description: Insecticidal activity against cotton aphid Aphis gossypii F36 (cotton aphid) in cotton leaves assessed as mortality measured after 48 hr by dipping method.
The subject of assay [11] is Aphis gossypii. Nature of the assay: Resistance ratio, LC50 for Aphis gossypii F30 (cotton aphid) to LC50 for Aphis gossypii F0.
The test system of assay [12] is Aphis gossypii. Description: Resistance ratio, LC50 for Aphis gossypii F9 (cotton aphid) to LC50 for Aphis gossypii F0.
The test system of assay [13] is Aphis gossypii. Nature of the assay: Resistance ratio, LC50 for Aphis gossypii F33 (cotton aphid) to LC50 for Aphis gossypii F0.
The test system of assay [14] is Aphis gossypii. Nature of the assay: Resistance ratio, LC50 for Aphis gossypii F42 (cotton aphid) to LC50 for Aphis gossypii F0.
Assay [15] concerns Aphis gossypii. Description: Insecticidal activity against cotton aphid Aphis gossypii F6 (cotton aphid) in cotton leaves assessed as mortality measured after 48 hr by dipping method.
The test system of assay [16] is Aphis gossypii. Nature of the assay: Resistance ratio, LC50 for Aphis gossypii F3 (cotton aphid) to LC50 for Aphis gossypii F0.
The test system of assay [17] is Aphis gossypii. Description: Insecticidal activity against cotton aphid Aphis gossypii F27 (cotton aphid) in cotton leaves assessed as mortality measured after 48 hr by dipping method.
In assay [18] the test system is Aphis gossypii. Description: Resistance ratio, LC50 for Aphis gossypii F6 (cotton aphid) to LC50 for Aphis gossypii F0.
Assay [19] relates to Aphis gossypii. Description: Insecticidal activity against cotton aphid Aphis gossypii F30 (cotton aphid) in cotton leaves assessed as mortality measured after 48 hr by dipping method.
The test system of assay [20] is Aphis gossypii. Nature of the assay: Insecticidal activity against cotton aphid Aphis gossypii F39 (cotton aphid) in cotton leaves assessed as mortality measured after 48 hr by dipping method.
The test system of assay [21] is Aphis gossypii. Nature of the assay: Insecticidal activity against cotton aphid Aphis gossypii F0 (cotton aphid) in cotton leaves assessed as mortality measured after 48 hr by dipping method.
Assay [22] has as its system Aphis gossypii. Description: Insecticidal activity against cotton aphid Aphis gossypii F3 (cotton aphid) in cotton leaves assessed as mortality measured after 48 hr by dipping method.
The test system of assay [23] is Aphis gossypii. Nature of the assay: Resistance ratio, LC50 for Aphis gossypii F15 (cotton aphid) to LC50 for Aphis gossypii F0.
For assay [24], the system named is Aphis gossypii. Description: Insecticidal activity against cotton aphid Aphis gossypii F21 (cotton aphid) in cotton leaves assessed as mortality measured after 48 hr by dipping method.
The test system of assay [25] is Aphis gossypii. Description: Resistance ratio, LC50 for Aphis gossypii F18 (cotton aphid) to LC50 for Aphis gossypii F0.
Assay [26] has as its system Aphis gossypii. Description: Resistance ratio, LC50 for Aphis gossypii F39 (cotton aphid) to LC50 for Aphis gossypii F0.
In assay [27] the test system is Aphis gossypii. Nature of the assay: Resistance ratio, LC50 for Aphis gossypii F24 (cotton aphid) to LC50 for Aphis gossypii F0.
For assay [28], the system named is Aphis gossypii. Description: Insecticidal activity against cotton aphid Aphis gossypii F12 (cotton aphid) in cotton leaves assessed as mortality measured after 48 hr by dipping method.
Assay [29] deals with Aphis gossypii. Nature of the assay: Resistance ratio, LC50 for Aphis gossypii F21 (cotton aphid) to LC50 for Aphis gossypii F0.
Assay [30] deals with Aphis gossypii. Description: Insecticidal activity against cotton aphid Aphis gossypii F9 (cotton aphid) in cotton leaves assessed as mortality measured after 48 hr by dipping method.
For assay [31], the system named is Aphis gossypii. Nature of the assay: Resistance ratio, LC50 for Aphis gossypii F12 (cotton aphid) to LC50 for Aphis gossypii F0.
The test system of assay [32] is Aphis gossypii. Description: Resistance ratio, LC50 for Aphis gossypii F45 (cotton aphid) to LC50 for Aphis gossypii F0.
The subject of assay [33] is Aphis gossypii. Description: Insecticidal activity against cotton aphid Aphis gossypii F45 (cotton aphid) in cotton leaves assessed as mortality measured after 48 hr by dipping method.
Assay [34] has as its system Aphis gossypii. Nature of the assay: Insecticidal activity against cotton aphid Aphis gossypii F33 (cotton aphid) in cotton leaves assessed as mortality measured after 48 hr by dipping method.
Assay [35] has as its system Aphis gossypii. Nature of the assay: Resistance ratio, LC50 for Aphis gossypii F27 (cotton aphid) to LC50 for Aphis gossypii F0.
Assay [36] concerns Aphis gossypii. Description: Resistance ratio, LC50 for Aphis gossypii F36 (cotton aphid) to LC50 for Aphis gossypii F0.
In assay [37] the test system is Aphis gossypii. Description: Insecticidal activity against cotton aphid Aphis gossypii F18 (cotton aphid) in cotton leaves assessed as mortality measured after 48 hr by dipping method.

Converted amounts (≈) assume the structure as drawn.

Take `CN/C(=N\[N+](=O)[O-])NCc1cnc(Cl)s1` [CLOTHIANIDINE]: the LC20 in assay [1] was determined as 1.23 µg/mL (≈ 4.93 µM). The LC50 in assay [2] is 2.18 microg/mL2; in assay [5], 1.82 microg/mL2. The “inhibition (INH)” value in [3] is given as 72.7%. The Survival in assay [4] amounted to 6.61 days. Besides, the RatioLC50 in [6] turned out to be 1.2.

Regarding `O=[N+]([O-])/N=C1\NCCN1Cc1ccc(Cl)nc1` [IMIDACLOPRID], the LC50 turned out to be 6.35 microg/mL2 in [7]; 3.34 microg/mL2 in assay [8]; 13.2 microg/mL2 in [9]; 12.2 microg/mL2 in [10]; 1.23 microg/mL2 in assay [15]; 7.1 microg/mL2 in [17]. The LC50 in assay [19] is 9.12 microg/mL2; in [20] it was 12.6 microg/mL2; in [21], 0.32 microg/mL2; in [22], 0.55 microg/mL2; in [2], 13.5 microg/mL2; in assay [24] it was 5.17 microg/mL2. The LC50 in [28] is 2.41 microg/mL2; in assay [5] it was 0.32 microg/mL2; in assay [30], 1.54 microg/mL2; in assay [33], 13.5 microg/mL2; in assay [34], 10.7 microg/mL2; in [37], 4.2 microg/mL2. For the same molecule, the RatioLC50 in assay [11] is 28.5; in assay [12] it was 4.81; in assay [13], 33.4; in assay [14], 41.1; in [16], 1.72; in assay [18], 3.84. The RatioLC50 worked out at 10.4 in [23]; 13.1 in assay [25]; 39.3 in assay [26]; 19.8 in [27]; 16.2 in assay [29]; 7.53 in [31]. The RatioLC50 in assay [32] was 41.7; in [6], 41.7; in assay [35], 22.2; in [36] it was 38.2. Moreover, in assay [1], the LC20 came out at 10.6 µg/mL (≈ 41.5 µM). The “inhibition (INH)” value in assay [3] was found to be 23.4%. In addition, in assay [4], the Survival was found to be 13.6 days.

As to `C/C(=N\C#N)N(C)Cc1ccc(Cl)nc1` [ACETAMIPRID], the LC20 in assay [1] worked out at 8.36 µg/mL (≈ 37.5 µM). For the same molecule, the LC50 in assay [2] is listed as 12.4 microg/mL2; in assay [5] it was 2.73 microg/mL2. In addition, in assay [3], the “inhibition (INH)” value is on record as 40.2%. Further, the Survival in [4] amounted to 11.4 days. In addition, in assay [6], the RatioLC50 is on record as 4.52.

Consider `CN/C(=N/CC1CCOC1)N[N+](=O)[O-]` (stereo not drawn) [DINOTEFURAN], for which the LC20 in [1] is 0.88 µg/mL (≈ 4.35 µM). In addition, the results for the LC50 in [2] and in assay [5] were 1.29 microg/mL2 and 1.2 microg/mL2, respectively. Moreover, the “inhibition (INH)” value in assay [3] stood at 82.2%. Moreover, the Survival in assay [4] came out at 2.95 days. Further, in [6], the RatioLC50 came to 1.07.

For the molecule `CN1COCN(Cc2cnc(Cl)s2)/C1=N\[N+](=O)[O-]` [THIAMETHOXAM], the LC20 in assay [1] came out at 0.96 µg/mL (≈ 3.29 µM). Also, the LC50 in assay [2] stood at 1.69 microg/mL2; in [5], 1.6 microg/mL2. For the same molecule, the “inhibition (INH)” value in assay [3] amounted to 73.7%. The Survival in [4] stood at 6.78 days. The RatioLC50 in assay [6] turned out to be 1.06.

With `N#C/N=C1\SCCN1Cc1ccc(Cl)nc1` [THIACLOPRID], the LC20 in assay [1] was found to be 5.45 µg/mL (≈ 21.6 µM). Also, the results for the LC50 in assay [2] and in assay [5] were 8.69 microg/mL2 and 2.36 microg/mL2, respectively. Besides, in assay [3], the “inhibition (INH)” value amounted to 36.9%. In assay [4], the Survival was found to be 10.6 days. Also, the RatioLC50 in assay [6] is given as 3.68.

Turning to `CCN(Cc1ccc(Cl)nc1)/C(=C/[N+](=O)[O-])NC` [NITENPYRAM], the LC20 in [1] is 10.5 µg/mL (≈ 38.8 µM). Besides, the LC50 in [2] was 14.3 microg/mL2; in assay [5], 2.47 microg/mL2. The “inhibition (INH)” value in [3] amounted to 28.3%. Moreover, in assay [4], the Survival worked out at 8.42 days. Further, the RatioLC50 in [6] amounted to 5.78.
